Experimental data taken from patent US7927601B2, “Variants of hepatitis B virus with resistance to anti-viral nucleoside agents and applications thereof” (Melbourne Health, priority 2004, dated 2011).
Marks after values point to notes of the source that are not given here.

Assays:
Assay type in all cases: cell-based, HBV genotype A
[1] = system: WT HBV-DNA construct transfected into HepG2 cells; assay: transient transfection cell culture assay, extracellular HBV-DNA by real-time PCR, WT construct
Description: (§1) An extended (1.28×) HBV genome was cloned (HBV genotype A, subtype adw2) into a pBluescript KS (+) plasmid (Stratagene, La Jolla, Calif., USA), as described by Tacke et al, J Virol 78:8524-8535, 2004.
HepG2 cells were grown in Eagles minimum essential medium (LGC Promochem, Middlesex, UK), supplemented with 10% v/v fetal bovine serum at 37° C. and 5% v/v CO2. For cDNA transfections, 3×10^5 cells were seeded to semi-confluence onto each well of a 6-well plate and allowed to adhere overnight. […]
(§2) HBV viral particles from the cell culture supernatant were precipitated using 26% polyethylene glycol (PEG 8000, Sigma, St. Louis, Mo., USA), followed by DNase 1 digestion (Takara, Shiga, Japan). […] A quantitative real-time PCR was used to quantify HBV-DNA. Briefly, a 189-bp fragment of the X region was amplified in a LightCycler system (Roche), using the QuantiTect Probe PCR kit (Qiagen) and the following probes and primers: 3FL-XHybprobe (5′-ACGGGGCGCACCTCTCTTTACGCGG fluorescein-3′ (SEQ ID NO:23)), 5LC-Xhybprobe (5′LCRed 640 nm-CTCCCCGTCTGTGCCTTCTCATCTGC PH-3′ (SEQ ID NO:24)), X sense (5′-GAC GTC CTT TGT YTA CGT CCC GTC-3′ (SEQ ID NO:25)), and X antisense (5′-TGCAGAGGTGAAGCGAAGTGCACA-3′ (SEQ ID NO:26)). […]
Extracellular HBV-DNA was examined by real-time PCR, 5 days post-transfection and IC50 values were calculated.

[2] = system: A194T (AT) mutant HBV-DNA construct transfected into HepG2 cells; assay: transient transfection cell culture assay, extracellular HBV-DNA by real-time PCR, rtA194T (AT) construct
Source text: as §1
(§3) Three mutated HBV plasmids were constructed using a Quikchange (Registered) II site-directed mutagenesis kit (Stratagene, La Jolla, Calif., USA). Plasmids contained either mutations rtL180M and rtM204V (LM), rtL180M, rtM204V and rtA194T (LMAT), or rtA194T (AT). […]
as §2
(§4) After adjusting for transfection efficiency, IC50 values were calculated from the HBV viral load using the following formula (Vandamme et al, Antiviral methods and protocols: 231, 2000): log IC50=log conc. […]

[3] = system: L180M + M204V (LM) mutant HBV-DNA construct transfected into HepG2 cells; assay: transient transfection cell culture assay, extracellular HBV-DNA by real-time PCR, rtL180M+rtM204V (LM) construct
Source text: as §1, §3, §2, §4

[4] = system: L180M, A194T, M204V (LMAT) mutant HBV-DNA construct transfected into HepG2 cells; assay: transient transfection cell culture assay, extracellular HBV-DNA by real-time PCR, rtL180M+rtA194T+rtM204V (LMAT) construct
Source text: as §1, §3, §2, §4

CC(C)OC(=O)OCOP(=O)(CO[C@H](C)Cn1cnc2c(N)ncnc21)OCOC(=O)OC(C)C.O=C(O)/C=C/C(=O)O [tenofovir, Tenofovir disoproxil fumarate]
Fold IC50, extracellular DNA ([1]; WT HBV construct (reference)): 1^
IC50 ([1]; WT HBV construct, 5 days post-transfection): 12.4 µM
IC50 ([2]; A194T (AT) construct, HepG2 cells, 5 days post-transfection): 95 µM
Fold IC50, extracellular DNA ([2]; A194T (AT) versus WT, 5-10 fold = partial resistance): 7.6^a
IC50 ([3]; L180M + M204V (LM) construct, HepG2 cells, 5 days post-transfection): 71 µM
Fold IC50, extracellular DNA ([3]; L180M + M204V (LM) versus WT, 5-10 fold = partial resistance): 5.7^a
IC50 ([4]; M204V (LMAT) construct, HepG2 cells, value above the cell toxic level of tenofovir): > 120 µM
Fold IC50, extracellular DNA ([4]; M204V (LMAT) versus WT, >10-fold = resistance): >10*^b
